Experimental data published in US20240279232A1, “USE OF SUBSTITUTED 5-(4-METHYL-6-PHENYL-4H-BENZO[F]IMIDAZO[1,5-A][1,4] DIAZEPIN-3-YL)-1,2,4-O[…] THE TREATMENT OF INFLAMMATORY CONDITIONS” (priority 2021, published 2024).

Experiments:
Swiss Webster mice = assay: Formalin test; type: in vivo, mouse; settings: orally; GL-IV-03 10 mg/kg; ketoprofen 30 mg/kg
Method: Webster mice were treated orally four days in advance with indicated compounds and doses before the injection of 2% formalin in the right hind paw. Mice were evaluated during the first 5 min (phase 1) and after 20 minutes (phase 2) for 5 minutes in 5 seconds intervals Licking and biting the right hind paw during a 5 second interval was noted and combined as total time addressing the injected paw. Data is given as mean with SEM (n =8). ** indicate p<0.01 (unpaired t-test).
The antinociceptive effect of GL-IV-03 was investigated with the formalin test. Paw injections of formalin elicited a biphasic pain response separated in time (1-5 minutes and 20-60 minutes). […] Sensorimotor impairment and sedation were investigated with mice that were trained to balance on a rotating rod over a period of three minutes (rotarod). The amount of time that mice remained balanced on the rod after intraperitoneal (i.p.) and oral (p.o.) treatment with GL-IV-03 and MP-IV-010 is summarized in FIG. 7B-7C. […] The effect was similar to non-steroidal anti-inflammatory drug ketoprofen at 30 mg/kg. Sedation and inhibition of sensorimotor coordination can influence licking and biting pain behaviors, prompting rotarod studies for GL-IV-03 and MP-IV-010. […] In contrast to diazepam, a benzodiazepine with high affinity for the α1β2/3γ2 and other GABAAR subtypes, was sedating at 5 mg/kg.
Formalin test. […]

D1 = D1 (Homo sapiens, UniProt P21728); assay: PDSP primary binding D1; settings: PDSP primary screening
Method: (§1) Because reduction of NO could not be reversed by GABAAR antagonists, the possible binding of MP-IV-010 to other cellular receptors was evaluated in collaboration with the NIMH Psychoactive Drug Screening Program.
(§2) Psychoactive Drug Screening Program. Detailed protocols for the primary and secondary radioligand binding assays can be found in the National Institute of Mental Health's Psychoactive Drug Screening Program (NIMH PDSP) Assay Protocol Book. Briefly, primary and secondary radioligand binding assays are carried out in a final of volume of 125 μL per well in appropriate binding buffer. The radioactive ligand concentration is close to the Kd. Total binding and nonspecific binding are determined in the absence and presence of 10 μM of appropriate reference compound, respectively. In brief, plates are usually incubated at room temperature and in the dark for 90 min. Reactions are stopped by vacuum filtration onto 0.3% polyethyleneimine (PEI) soaked 96-well filter mats using a 96-well Filtermate harvester, followed by three washes with cold PBS buffer. Scintillation cocktail is then melted onto the microwave-dried filters on a hot plate and radioactivity counted in a Microbeta counter. The data (n=6) were analyzed by nonlinear regression.

D4 = D4 (Homo sapiens, UniProt P21917); assay: PDSP primary binding D4; settings: PDSP primary screening
Method: as §1, §2

Chain of D1 (P21728 whole entry): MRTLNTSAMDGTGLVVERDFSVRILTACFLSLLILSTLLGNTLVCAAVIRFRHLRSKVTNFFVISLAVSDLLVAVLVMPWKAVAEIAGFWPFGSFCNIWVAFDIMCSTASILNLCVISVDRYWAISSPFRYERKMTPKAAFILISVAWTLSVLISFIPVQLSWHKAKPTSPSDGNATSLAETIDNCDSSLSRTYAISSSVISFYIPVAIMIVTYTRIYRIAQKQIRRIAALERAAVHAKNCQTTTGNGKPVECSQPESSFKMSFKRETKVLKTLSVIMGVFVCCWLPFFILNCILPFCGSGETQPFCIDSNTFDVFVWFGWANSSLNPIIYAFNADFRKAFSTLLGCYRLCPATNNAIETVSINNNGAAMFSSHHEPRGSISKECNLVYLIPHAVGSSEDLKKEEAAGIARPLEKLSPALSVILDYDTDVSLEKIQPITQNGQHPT
Chain of D4 (P21917 whole entry): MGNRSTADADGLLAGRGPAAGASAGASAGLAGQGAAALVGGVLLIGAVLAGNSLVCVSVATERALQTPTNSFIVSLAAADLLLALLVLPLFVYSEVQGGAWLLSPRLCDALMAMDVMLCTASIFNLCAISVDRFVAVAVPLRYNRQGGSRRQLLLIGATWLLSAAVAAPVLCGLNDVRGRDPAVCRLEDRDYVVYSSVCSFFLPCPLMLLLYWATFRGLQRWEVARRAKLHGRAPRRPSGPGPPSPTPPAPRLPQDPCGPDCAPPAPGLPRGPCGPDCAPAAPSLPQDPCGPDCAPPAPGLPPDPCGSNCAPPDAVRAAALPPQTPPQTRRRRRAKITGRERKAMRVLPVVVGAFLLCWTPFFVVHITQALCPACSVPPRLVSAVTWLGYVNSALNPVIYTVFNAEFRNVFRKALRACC

SMILES	antinociceptive effect, formalin test (phase 1 and 2) (Swiss Webster mice)	Percent Competition D1 (D1)	Percent Competition D4 (D4)
CCc1noc(-c2ncn3c2[C@@H](C)N=C(c2ccccc2F)c2cc(C4CC4)ccc2-3)n1 [GL-IV-03, (R)-5-(8-Cyclopropyl-6-(2-fluorophenyl)-4-methyl-4H-benzo[f]imidazo[1,5-a][1,4]diazepin-3-yl)-3-ethyl-1,2,4-oxadiazole]	antinociceptive effects in both acute pain (phase 1) and inflammation mediated pain (phase 2)	–	–
C#Cc1ccc2c(c1)C(c1ccccc1F)=N[C@H](C)c1c(-c3nc(C(C)C)no3)ncn1-2 [MP-IV-010, (R)-5-(8-ethynyl-6-(2-fluorophenyl)-4-methyl-4H-benzo[f]imidazo[1,5-a][1,4]diazepin-3-yl)-3-isopropyl-1,2,4-oxadiazole]	–	28%	5%
